For this test, the system named is MCH receptors. The test can be described thus: MCH receptor activity class (method not given).
[1] abbreviates: MCH receptor activity class 1-3 (percent of control at 10^-7 M or IC50).
Where [2] appears, read: MCH receptor, class by percent of control at 10^-7 M or IC50.
The mark [3] stands for this setting: class by percent of control at 10^-7 M or IC50.
[4] abbreviates: class by percent of control at 10^−7 M or IC50.
The mark [5] stands for this setting: activity class 1-3: percent of control at 10^-7 M or IC50.

Molecules are shown by their SMILES.

`CCc1cccc(CC)c1NC(=O)NC[C@H]1CC[C@@H](Nc2cc(N(C)C)c3ccccc3n2)CC1` [compound 2372]: under setting [1], the class is 2 (Class 2: The value of percent of control at 10^−7 M was from 40% to 60% or the value of IC′50 was from 50 nM to 200 nM.). For `COc1ccc(CNC(=S)N[C@H]2CC[C@@H](Nc3nc4c(c(N(C)C)n3)CCCC4)CC2)cc1OC` [compound 2041], the class under setting [2] is given as 3 (Class 3 The value of percent of control at 10^−7 M was more than 60% or the value of IC50 was more than 200 nM.).

In the case of `CN(C)c1nc(N[C@H]2CC[C@@H](NC(=S)Nc3ccc(/N=N/c4ccccc4)cc3)CC2)nc2c1CCCC2` [compound 2080], the class under setting [2] is listed as 3 (Class 3 The value of percent of control at 10^−7 M was more than 60% or the value of IC50 was more than 200 nM.). For the molecule `CN(C)c1cc(N[C@H]2CC[C@@H](CNC(=O)c3ccc(-c4ccc(Cl)cc4[N+](=O)[O-])o3)CC2)nc2ccccc12` [compound 791], the class under setting [3] was 3 (Class 3 The value of percent of control at 10^−7 M was more than 60% or the value of IC50 was more than 200 nM.). As for `CN(C)c1nc(N[C@H]2CC[C@@H](CNC(=O)c3c(F)cccc3F)CC2)nc2c1CCCC2` [compound 664], the class under setting [3] is given as 3 (Class 3 The value of percent of control at 10^−7 M was more than 60% or the value of IC50 was more than 200 nM.). In the case of `CN(C)c1cc(N[C@H]2CC[C@@H](CNC(=O)Cc3c(Cl)ccc(Cl)c3Cl)CC2)nc2ccccc12` [compound 789, N-[(cis-4-{[4-(dimethylamino)quinolin-2-yl]amino}cyclohexyl)methyl]-2-(2,3,6-trichlorophenyl)acetamide], the class under setting [3] was 1 (Class 1: The value of percent of control at 10^−7 M was less than 40% or the value of IC50 was less than 50 nM.). For the molecule `CN(C)c1cc(N[C@H]2CC[C@@H](NC(=O)c3cc(-c4ccc(Cl)cc4)oc3C(F)(F)F)CC2)nc2ccccc12` [compound 140], the class under setting [2] is given as 3 (Class 3 The value of percent of control at 10^−7 M was more than 60% or the value of IC50 was more than 200 nM.). Turning to `COc1ccc([N+](=O)[O-])cc1NC(=S)N[C@H]1CC[C@@H](Nc2nc3c(c(N(C)C)n2)CCCC3)CC1` [compound 2039], the class under setting [2] was 3 (Class 3 The value of percent of control at 10^−7 M was more than 60% or the value of IC50 was more than 200 nM.).

Turning to `Cc1nc(N[C@H]2CC[C@@H](NC(=O)c3ccc(C(F)(F)F)nc3)CC2)nc(N(C)C)c1C` [compound 2859], the class under setting [4] is 2 (Class 2: The value of percent of control at 10^−7 M was from 40% to 60% or the value of IC′50 was from 50 nM to 200 nM.). As to `CN(C)c1nc(N[C@H]2CC[C@@H](CNC(=O)Nc3c(Br)cc(Br)cc3Br)CC2)nc2c1CCCC2` [compound 2462], under setting [1], the class is listed as 1 (Class 1: The value of percent of control at 10^−7 M was less than 40% or the value of IC50 was less than 50 nM.).

As to `COc1ccc(F)c(CNC[C@H]2CC[C@@H](Nc3nc4c(c(N(C)C)n3)CCCC4)CC2)c1` [compound 1406], the class under setting [3] is given as 3 (Class 3 The value of percent of control at 10^−7 M was more than 60% or the value of IC50 was more than 200 nM.).

With `CC(C)[C@@H]1CC[C@@H](C)CC1OC(=O)N[C@H]1CC[C@@H](Nc2nc3c(c(N(C)C)n2)CCCC3)CC1` (stereo partly shown) [compound 1593], the class under setting [5] is recorded as 3 (Class 3 The value of percent of control at 10^−7 M was more than 60% or the value of IC50 was more than 200 nM.). With `Cc1cc(C)c(C(=O)NC[C@H]2CC[C@@H](Nc3nc4c(c(N(C)C)n3)CCCC4)CC2)c(C)c1` [compound 666], the class under setting [3] is on record as 2 (Class 2: The value of percent of control at 10^−7 M was from 40% to 60% or the value of IC′50 was from 50 nM to 200 nM.).

Consider `CN(C)c1nc(N[C@H]2CC[C@@H](NCc3ccc(F)c(Br)c3)CC2)nc2c1CCCC2` [compound 1346], for which the class under setting [3] is reported as 3 (Class 3 The value of percent of control at 10^−7 M was more than 60% or the value of IC50 was more than 200 nM.). Take `Cc1cc(C)c(C(=O)NC[C@H]2CC[C@@H](Nc3nccc(N(C)C)n3)CC2)c(C)c1` [compound 449, N-[(cis-4-{[4-(dimethylamino)pyrimidin-2-yl]amino}cyclohexyl)methyl]-2,4,6-trimethylbenzamide]: the class (class 1-3 by percent of control at 10^-7 M or IC50) was 2 (Class 2: The value of percent of control at 10^−7 M was from 40% to 60% or the value of IC′50 was from 50 nM to 200 nM.). Turning to `CN(C)c1cc(N[C@H]2CC[C@@H](CNCc3ccc(Cl)cc3)CC2)nc2ccccc12` [compound 1149], the class (activity class per percent of control at 10^-7 M or IC50) was 3 (Class 3 The value of percent of control at 10^−7 M was more than 60% or the value of IC50 was more than 200 nM.). Regarding `COc1cc(OC)cc(C(=O)N[C@H]2CC[C@@H](Nc3cc(N(C)C)c4ccccc4n3)CC2)c1` [compound 76, N-(cis-4-{[4-(dimethylamino)quinolin-2-yl]amino}cyclohexyl)-3,5-dimethoxybenzamide], the class under setting [2] is on record as 3 (Class 3 The value of percent of control at 10^−7 M was more than 60% or the value of IC50 was more than 200 nM.). In the case of `CN(C)c1nc(N[C@H]2CC[C@@H](NC(=S)Nc3ccc(Br)cc3F)CC2)nc2c1CCCC2` [compound 1991], under setting [2], the class is recorded as 3 (Class 3 The value of percent of control at 10^−7 M was more than 60% or the value of IC50 was more than 200 nM.). `CN(C)c1ccnc(N[C@H]2CC[C@@H](CNC(=O)C(c3ccc(Cl)cc3)c3ccc(Cl)cc3)CC2)n1` [compound 937, 2,2-bis(4-chlorophenyl)-N-[(cis-4-{[4-(dimethylamino)pyrimidin-2-yl]amino}cyclohexyl)methyl]acetamide]: under setting [3], the class is 1 (Class 1: The value of percent of control at 10^−7 M was less than 40% or the value of IC50 was less than 50 nM.). Consider `CN(C)c1ccnc(N[C@H]2CC[C@@H](NC(=O)c3ccc(C(F)(F)F)c(F)c3)CC2)n1` [compound 911], for which, under setting [3], the class is 3 (Class 3 The value of percent of control at 10^−7 M was more than 60% or the value of IC50 was more than 200 nM.). As to `CN(C)c1nc(N[C@H]2CC[C@@H](NC(=O)Nc3ccsc3)CC2)nc2c1CCCC2` [compound 1917], the class under setting [2] is given as 3 (Class 3 The value of percent of control at 10^−7 M was more than 60% or the value of IC50 was more than 200 nM.).

As for `CN(C)c1cc(N[C@H]2CC[C@@H](CNC(=O)OCc3ccc([N+](=O)[O-])cc3)CC2)nc2ccccc12` [compound 1568], the class under setting [5] is 3 (Class 3 The value of percent of control at 10^−7 M was more than 60% or the value of IC50 was more than 200 nM.). For `Cc1ccc(S(=O)(=O)N[C@H](CN[C@H]2CC[C@@H](Nc3nc4c(c(N(C)C)n3)CCCC4)CC2)Cc2ccccc2)cc1` [compound 1491], the class under setting [3] was 1 (Class 1: The value of percent of control at 10^−7 M was less than 40% or the value of IC50 was less than 50 nM.). With `Cc1cnc(N[C@H]2CC[C@@H](CNC(=O)c3ccccc3)CC2)nc1N(C)C` [compound 2690, N-[(cis-4-{[4-(dimethylamino)-5-methylpyrimidin-2-yl]amino}cyclohexyl)methyl]benzamide], the class under setting [4] is reported as 3 (Class 3 The value of percent of control at 10^−7 M was more than 60% or the value of IC50 was more than 200 nM.). For `CN(C)c1nc(N[C@H]2CC[C@@H](CNC(=O)Cc3ccc(F)cc3)CC2)nc2c1CCCC2` [compound 630], the class under setting [3] is reported as 3 (Class 3 The value of percent of control at 10^−7 M was more than 60% or the value of IC50 was more than 200 nM.). Regarding `CN(C)c1nc(N[C@H]2CC[C@@H](NC(=S)NC3CCCCC3)CC2)nc2c1CCCC2` [compound 1931], under setting [2], the class is 3 (Class 3 The value of percent of control at 10^−7 M was more than 60% or the value of IC50 was more than 200 nM.). In the case of `Cc1cnc(NC[C@H]2CC[C@@H](NC(=O)c3ccc(C(F)(F)F)c(F)c3)CC2)nc1N(C)C` [compound 2727], the class under setting [4] is listed as 3 (Class 3 The value of percent of control at 10^−7 M was more than 60% or the value of IC50 was more than 200 nM.).

With `CCc1cccc(C(C)C)c1NC(=S)N[C@H]1CC[C@@H](Nc2nc3c(c(N(C)C)n2)CCCC3)CC1` [compound 1742], the class under setting [3] is listed as 3 (Class 3 The value of percent of control at 10^−7 M was more than 60% or the value of IC50 was more than 200 nM.). Turning to `CCN(CC)c1ccc(CNC[C@H]2CC[C@@H](Nc3nccc(N(C)C)n3)CC2)cc1` [compound 1271], under setting [3], the class is 2 (Class 2: The value of percent of control at 10^−7 M was from 40% to 60% or the value of IC′50 was from 50 nM to 200 nM.). For the molecule `CN(C)c1ccnc(N[C@H]2CC[C@@H](CNC(=O)C3c4ccccc4Oc4ccccc43)CC2)n1` [compound 947, N-[(cis-4-{[4-(dimethylamino)pyrimidin-2-yl]amino}cyclohexyl)methyl]-9H-xanthene-9-carboxamide], the class under setting [3] is recorded as 1 (Class 1: The value of percent of control at 10^−7 M was less than 40% or the value of IC50 was less than 50 nM.). Regarding `CC(C(=O)N[C@H]1CC[C@@H](Nc2cc(N(C)C)c3ccccc3n2)CC1)c1ccc(N2Cc3ccccc3C2=O)cc1` (relative stereo) [compound 710], the class under setting [3] is recorded as 3 (Class 3 The value of percent of control at 10^−7 M was more than 60% or the value of IC50 was more than 200 nM.).

For `Cc1ccc(C(=O)NC[C@H]2CC[C@@H](Nc3ncc(C)c(N(C)C)n3)CC2)cc1F` [compound 2695, N-[(cis-4-{[4-(dimethylamino)-5-methylpyrimidin-2-yl]amino}cyclohexyl)methyl]-3-fluoro-4-methylbenzamide], the class under setting [4] is recorded as 2 (Class 2: The value of percent of control at 10^−7 M was from 40% to 60% or the value of IC′50 was from 50 nM to 200 nM.). Take `CCCCCC(=O)NC[C@H]1CC[C@@H](Nc2cc(N(C)C)c3ccccc3n2)CC1` [compound 167]: the class under setting [2] is on record as 3 (Class 3 The value of percent of control at 10^−7 M was more than 60% or the value of IC50 was more than 200 nM.). For the molecule `CN(C)c1cc(N[C@H]2CC[C@@H](NC(=O)c3csc([N+](=O)[O-])c3)CC2)nc2ccccc12` [compound 767, N-(cis-4-{[4-(dimethylamino)quinolin-2-yl]amino}cyclohexyl)-5-nitrothiophene-3-carboxamide], the class under setting [3] is 1 (Class 1: The value of percent of control at 10^−7 M was less than 40% or the value of IC50 was less than 50 nM.).

The values are drawn from US20050197350A1, “Novel quinoline, tetrahydroquinazoline, and pyrimidine derivatives and methods of treatment related to the use thereof” (TAISHO PHARMACEUTICAL CO., LTD., priority 2003, published 2005).
